In US20200048237A1, “A Free Base Oxazine Derivative in Crystalline Form” (NOVARTIS AG, priority 2017, published 2020):

What was measured:
[1] = Drug-drug interaction study in healthy volunteers: plasma PK of Compound 1 alone and with strong CYP3A4 inducer rifampicin; format: in vivo, human; settings: with rifampicin 600 mg q.d. vs Compound 1 alone
[2] = Drug-drug interaction study in healthy volunteers: plasma PK of Compound 1 alone and with strong CYP3A4 inhibitor itraconazole; format: in vivo, human; settings: with itraconazole 200 mg q.d. vs Compound 1 alone
[3] = Chemical stability of crystalline Form A exposed to high temperature and/or humidity (UPLC purity, XRPD solid form); format: physicochemical
Protocol: The stability of crystalline Form A was tested by exposing the crystalline material to high temperature and/or humidity for at least three weeks. After storage at high temperature and/or humidity, bulk crystalline material was sampled and dissolved in acetonitrile:water (80:20) and the purity analysed in a Waters Aquity UPLC using the following conditions: […]

SMILES: C[C@@]1(c2nc(NC(=O)c3ncc(C(F)(F)F)cc3Cl)ccc2F)CO[C@@](C)(C(F)(F)F)C(N)=N1 [Compound 1, N-(6-((3R,6R)-5-amino-3,6-dimethyl-6-(trifluoromethyl)-3,6-dihydro-2H-1,4-oxazin-3-yl)-5-fluoropyridin-2-yl)-3-chloro-5-(trifluoromethyl)picolinamide]
- Decrease of mean AUC of Compound 1 [1]: 5-6 fold
- Decrease of mean Cmax of Compound 1 [1]: 2.5 fold
- Increase of mean AUC of Compound 1 [2]: 2-3 fold
- Increase of mean Cmax of Compound 1 [2]: 25%

SMILES: C[C@@]1(c2nc(NC(=O)c3ncc(C(F)(F)F)cc3Cl)ccc2F)CO[C@@](C)(C(F)(F)F)C(N)=N1 [Form A, N-(6-((3R,6R)-5-amino-3,6-dimethyl-6-(trifluoromethyl)-3,6-dihydro-2H-1,4-oxazin-3-yl)-5-fluoropyridin-2-yl)-3-chloro-5-(trifluoromethyl)picolinamide]
- Solid State Form ([3]; RT, exposure time 0): Crystalline
- Thermodynamic stability among polymorphs ([3]; compared with Form B, hydrate Form HA and amorphous form): most thermodynamically stable polymorph

SMILES: C[C@@]1(c2nc(NC(=O)c3ncc(C(F)(F)F)cc3Cl)ccc2F)CO[C@@](C)(C(F)(F)F)C(N)=N1 [Form B, N-(6-((3R,6R)-5-amino-3,6-dimethyl-6-(trifluoromethyl)-3,6-dihydro-2H-1,4-oxazin-3-yl)-5-fluoropyridin-2-yl)-3-chloro-5-(trifluoromethyl)picolinamide]
- Solid form stability by XRPD analysis ([3]; same conditions as Table 12 (high temperature and/or humidity)): conversion into Form A occurred
